Assay results as given in publication PMC4179164, “Ophiobolin A from Bipolaris oryzae Perturbs Motility and Membrane Integrities of Porcine Sperm and Induces Cell Death on Mammalian Somatic Cell Lines” (Toxins, 2014).
Values after ≈ are worked out from the molar mass of the structure shown.

How the values were obtained:
boar spermatozoa [1] = assay: Shivering tail beating induction in exposed sperm cells; format: cell-based
Description: This phenomenon may indicate that the cell still produce ATP and NADH in the cytoplasm after the OPA treatment, which differs from the effect caused by cation channel forming alamethicin, which depletes the sperm cells from motility, plasma membrane integrity as well as NADH and ATP production at similar concentrations. To confirm the effect of OPA on the plasma membrane permeability, the viability staining with propidium iodide (PI) and calcein-AM was performed after one day incubation at room temperature, (similar conditions as the JC-1 staining) where the EC50 value appeared at 1.6 μg mL^−1, over twice the concentrations that depolarized the mitochondria (Table 1).
Microscopic area containing shivering sperm cell is enlarged at top right of the picture.

boar spermatozoa [2] = assay: Dissipation of mitochondrial membrane potential (ΔΨm), JC-1 staining; format: cell-based
Description: The membrane-permeable 5,5',6,6'-tetrachloro-1,1',3,3'-tetraethylbenzimidazolylcarbocyanine iodide (JC-1) dye is widely used in apoptosis studies to monitor mitochondrial health. […] Therefore, the loss of ΔΨm was seen as decrease in orange fluorescence. In our cases, the staining for […] with JC-1 at 37 °C was enough to get the energized mitochondria stained orange and the plasma membrane green. This short staining was empirically optimized for getting the most reproducible differences between vehicle and toxin exposed sperm cells in Hoornstra et al.. After 2 min incubation, OPA completely depolarized the mitochondrial membrane of the sperm cells at the concentration of 1.25 μg mL^−1 and the exposed cells have already lost approximately 50% of their bright fluorescing mitochondria at the concentration of 500 ng mL^−1 (Figure 3, Table 1).
The dissipation of the ΔΨm on static cells at room temperature was visualized by 5,5',6,6'-tetrachloro-1,1',3,3'-tetraethylbenzimidazolylcarbocyanine iodide (JC-1) (Molecular Probes, Eugene, OR, USA) staining according to Hoornstra et al. with minor modifications as follows: 200 μL of the boar semen exposed with the final OPA concentration of 2.5 μg mL^−1, 1.25 μg mL^−1, 0.5 μg mL^−1 and 0.125 μg mL^−1 was incubated at 37 °C for 2 min, stained with 0.3 μL of JC-1 (1 mg mL^−1 in DMSO) followed by another 2 min at 37 °C and viewed using an epifluorescence microscope (Eclipse E600, Nikon, Tokyo, Japan). All assays (PI + CAM and JC-1 staining) were performed in triplicate and for each sample five microscopic fields containing ca. 20 cells were inspected.

## CC(C)=C[C@H]1C[C@H](C)[C@]2(CC[C@]3(C)C[C@H]4[C@H](C(=O)C[C@@]4(C)O)/C(C=O)=C\C[C@H]32)O1 [OPA, ophiobolin A]
Boar spermatozoa [1]; Spermatozoa, read-out: Toxic endpoint EC50, Shivering tail beating induction
  EC50: 0.5 µg/mL (≈ 1.25 µM)
Boar spermatozoa [1]; exposure at room temperature
  Concentration inducing shivering tail beating with depolarisation of mitochondria: < 1 µg/mL
Boar spermatozoa [2]; 125 ng mL^−1 OPA, JC-1 staining
  Effect on JC-1 mitochondrial fluorescence: minimal difference compared to the untreated control
Boar spermatozoa [2]; 500 ng mL^−1 OPA, JC-1 staining
  Loss of bright fluorescing mitochondria: approximately 50%
Boar spermatozoa [2]; JC-1 staining, 2 min incubation at 37 °C
  Concentration completely depolarizing the mitochondrial membrane of the sperm cells: 1.25 µg/mL
Boar spermatozoa [2]; Spermatozoa, read-out: Toxic endpoint EC50, Dissipation of ΔΨm
  EC50: 0.5 µg/mL (≈ 1.25 µM)
